Data published in DBAASP.
Converted amounts (≈) assume the structure as drawn.

Columns and labels:
Assay in all cases: ≥ marks a high value that may be exact or a test limit, other limits are often not marked, values filed in µg/mL are converted to µM
[1] = test system: Escherichia coli ATCC 25922
[2] = test system: Salmonella enterica subsp. enterica serovar Typhimurium ATCC 14028
[3] = test system: Escherichia coli ATCC 35218
[4] = test system: Escherichia coli ATCC 11775
[5] = test system: Salmonella enterica subsp. enterica serovar Typhi Vi+
Escherichia coli ML-35p = test system: Escherichia coli ML-35p
[6] = test system: Staphylococcus aureus ATCC BAA-44
[7] = test system: Enterococcus faecalis ATCC 29212
[8] = test system: Pseudomonas aeruginosa ATCC 27853
[9] = test system: Staphylococcus aureus ATCC 25923
[10] = test system: Escherichia coli NCTC 10418
[11] = test system: Candida albicans NCPF 1467
[12] = test system: Staphylococcus aureus NCTC 10788
[13] = test system: Staphylococcus aureus ATCC 12493
Acinetobacter baumannii = test system: Acinetobacter baumannii
[14] = test system: Escherichia coli CGMCC 1.8732
[15] = test system: Klebsiella pneumoniae CGMCC 1.1736
[16] = test system: Pseudomonas aeruginosa CGMCC 1.2421
[17] = test system: Bacillus subtilis CGMCC 1.3376
[18] = test system: Staphylococcus epidermidis CGMCC 1.4260
[19] = test system: Staphylococcus aureus CGMCC 1.8721
Campylobacter jejuni = test system: Campylobacter jejuni
[20] = test system: Pseudomonas aeruginosa Q14-0208
[21] = test system: Salmonella typhimurium SL1344
[22] = test system: Acinetobacter baumannii Q13-0717
[23] = test system: Staphylococcus aureus Q14-0320
[24] = test system: Listeria monocytogenes NCTC 11994
[25] = test system: Staphylococcus aureus ATCC 29213
[26] = test system: Acinetobacter baumannii Q12-0867
[27] = test system: Pseudomonas aeruginosa PAO1
[28] = test system: Klebsiella pneumoniae Q14-0095
Escherichia coli K-12 = test system: Escherichia coli K-12
[29] = test system: Campylobacter jejuni NCTC 11351
[30] = test system: Staphylococcus aureus NCTC 12493
[31] = test system: Staphylococcus aureus RN4220
[32] = test system: Acinetobacter baumannii Q12-0809
[33] = test system: Staphylococcus aureus MRSA-15
[34] = test system: Pseudomonas aeruginosa Q12-0581
[35] = test system: Klebsiella pneumoniae Q14-0285
[36] = test system: Klebsiella pneumoniae NCTC 13442
Escherichia coli = test system: Escherichia coli
[37] = test system: Pseudomonas aeruginosa Q14-0890
[38] = test system: Enterococcus faecalis JH-2-2
[39] = test system: Klebsiella pneumoniae ATCC 700603

In the case of `CC[C@H](C)[C@H](NC(=O)[C@@H]1CCCN1C(=O)[C@H](CCCN=C(N)N)NC(=O)[C@@H]1CCCN1C(=O)[C@H](Cc1cnc[nH]1)NC(=O)[C@H](CO)NC(=O)[C@H](CO)NC(=O)[C@@H]1CCCN1C(=O)[C@H](CCCN=C(N)N)NC(=O)[C@@H]1CCCN1C(=O)[C@H](CO)NC(=O)[C@H](Cc1ccc(O)cc1)NC(=O)[C@@H]1CCCN1C(=O)[C@H](CCCN=C(N)N)NC(=O)[C@@H]1CCCN1C(=O)[C@H](CCCCN)NC(=O)CN)C(=O)N[C@@H](CCCN=C(N)N)C(=O)N[C@H](C(=O)O)C(C)C` [GKPRPYSPRPSSHPRPIRV], the MIC [1] was 0.4 µM (≈ 0.874 µg/mL), the MIC [2] was 2 µM (≈ 4.37 µg/mL) and the MIC [3] was 0.2 µM (≈ 0.437 µg/mL). It also gave an MIC [4] of 0.6 µM (≈ 1.31 µg/mL) and an MIC [5] of 3 µM (≈ 6.55 µg/mL).

Molecule `CC[C@H](C)[C@H](NC(=O)[C@H](CCCCN)NC(=O)[C@H](CC(C)C)NC(=O)[C@H](CC(C)C)NC(=O)[C@@H]1CCCN1C(=O)CNC(=O)[C@H](CC(C)C)NC(=O)[C@H](CCCCN)NC(=O)CN)C(=O)N[C@@H](C)C(=O)N[C@@H](C)C(=O)N[C@@H](CCCCN)C(=O)N[C@H](C(=O)NCC(=O)N[C@@H](CO)C(=O)N[C@@H](CCCCN)C(=O)N[C@@H](CC(C)C)C(=O)N[C@@H](CC(C)C)C(N)=O)C(C)C` [GKLGPLLKIAAKVGSKLL] has an MIC (Escherichia coli ML-35p) of 1.6 µM (≈ 2.89 µg/mL), an MIC [1] of 6.3 µM (≈ 11.4 µg/mL) and an MIC [6] of 6.3 µM (≈ 11.4 µg/mL). The MIC [7] was 50 µM (≈ 90.3 µg/mL), the MIC [8] was 3 µM (≈ 5.42 µg/mL) and the MIC [9] was 3 µM (≈ 5.42 µg/mL).

In the case of `CC(C)C[C@H](NC(=O)[C@H](CC(C)C)NC(=O)[C@H](CC(C)C)NC(=O)[C@@H]1CCCN1C(=O)[C@H](CC(C)C)NC(=O)[C@@H](N)Cc1ccccc1)C(=O)N[C@@H](C)C(=O)NCC(=O)N[C@@H](CC(C)C)C(=O)N1CCC[C@H]1C(=O)N[C@@H](CO)C(=O)N[C@@H](Cc1ccccc1)C(=O)N[C@@H](CC(C)C)C(=O)N[C@H]1CSSC[C@@H](C(=O)O)NC(=O)[C@H](CCCCN)NC(=O)[C@H](CCCCN)NC(=O)[C@H](Cc2ccccc2)NC(=O)[C@H](C(C)C)NC(=O)[C@H](CC(C)C)NC1=O` [FLPLLLAGLPSFLCLVFKKC], the MIC [10] was no less than 512 µM, the MIC [11] was no less than 512 µM and the MIC [12] was no less than 128 µM. For the same molecule, the MIC [13] was no less than 512 µM.

`CC[C@H](C)[C@H](NC(=O)[C@H](CO)NC(=O)CNC(=O)[C@@H](NC(=O)[C@@H](N)CCCN=C(N)N)[C@@H](C)CC)C(=O)N[C@@H](CC(C)C)C(=O)NCC(=O)N[C@@H](CCCN=C(N)N)C(=O)N[C@@H](CC(C)C)C(=O)N[C@@H](C)C(=O)N[C@@H](CCCCN)C(=O)NCC(=O)N[C@@H](CC(C)C)C(=O)N1CCC[C@H]1C(=O)N[C@H](C(=O)N[C@@H](CC(C)C)C(=O)N[C@@H](CCCCN)C(=O)N[C@@H](CO)C(=O)N[C@@H](Cc1c[nH]c2ccccc12)C(=O)N[C@H](C(=O)N[C@@H](CCCCN)C(=O)N[C@@H](CC(N)=O)C(=O)N[C@@H](CCCN=C(N)N)C(N)=O)[C@@H](C)CC)[C@@H](C)O` [RIGSILGRLAKGLPTLKSWIKNR] was tested, and the MIC (Acinetobacter baumannii) was 12.5 µM (≈ 32.2 µg/mL), the MIC [14] was 12.5 µM (≈ 32.2 µg/mL) and the MIC [15] was 12.5 µM (≈ 32.2 µg/mL). For the same molecule, the MIC [16] was 12.5 µM (≈ 32.2 µg/mL), the MIC [17] was 12.5 µM (≈ 32.2 µg/mL) and the MIC [18] was 6.25 µM (≈ 16.1 µg/mL). The MIC [19] was no less than 100 µM.

Molecule `CC(C)C[C@H](NC(=O)[C@H](Cc1cnc[nH]1)NC(=O)[C@H](Cc1ccccc1)NC(=O)[C@H](Cc1ccccc1)NC(=O)[C@H](CCCN=C(N)N)NC(=O)[C@H](CCCCN)NC(=O)[C@H](CO)NC(=O)[C@H](CCCN=C(N)N)NC(=O)[C@H](Cc1cnc[nH]1)NC(=O)[C@H](CC(C)C)NC(=O)[C@H](Cc1ccccc1)NC(=O)[C@H](CCCCN)NC(=O)[C@H](CCCN=C(N)N)NC(=O)[C@H](Cc1ccc(O)cc1)NC(=O)CNC(=O)[C@@H](NC(=O)[C@H](Cc1cnc[nH]1)NC(=O)[C@H](CC(C)C)NC(=O)[C@@H](N)C(C)C)[C@@H](C)O)C(=O)N[C@@H](CCCN=C(N)N)C(=O)O` [VLHTGYRKFLHRSKRFFHLR] has an MIC (Campylobacter jejuni) of no less than 49.2 µM, an MIC [20] of no less than 49.2 µM and an MIC [21] of 12.3 µM (≈ 32 µg/mL). The MIC [22] was no less than 49.2 µM, the MIC [23] was no less than 49.2 µM and the MIC [24] was 24.6 µM (≈ 64 µg/mL). For the same molecule, the MIC [25] was greater than 49.2 µM, the MIC [26] was 24.6 µM (≈ 64 µg/mL) and the MIC [27] was 197 µM (≈ 512 µg/mL). For the same molecule, the MIC [28] was no less than 49.2 µM, the MIC (Escherichia coli K-12) was 24.6 µM (≈ 64 µg/mL) and the MIC [29] was no less than 49.2 µM. The MIC [8] was greater than 49.2 µM, the MIC [30] was 12.3 µM (≈ 32 µg/mL) and the MIC [31] was no less than 49.2 µM. For the same molecule, the MIC [32] was 12.3 µM (≈ 32 µg/mL), the MIC [33] was no less than 49.2 µM and the MIC [34] was no less than 49.2 µM. For the same molecule, the MIC [35] was 24.6 µM (≈ 64 µg/mL), the MIC [36] was no less than 49.2 µM and the MIC (Escherichia coli) was greater than 49.2 µM. It also gave an MIC [37] of 24.6 µM (≈ 64 µg/mL), an MIC [38] of 24.6 µM (≈ 64 µg/mL) and an MIC [39] of 49.2 µM (≈ 128 µg/mL).
